The values below come from patent US10905651B1, “Zeinmersome nanocarriers for drug delivery to the liver” (King Abdulaziz University, priority 2020, dated 2021).

Structures are written as SMILES.

The target of one data set is T1, AT1 receptor (Homo sapiens, UniProt P30556).
T1 sequence (P30556 1-359): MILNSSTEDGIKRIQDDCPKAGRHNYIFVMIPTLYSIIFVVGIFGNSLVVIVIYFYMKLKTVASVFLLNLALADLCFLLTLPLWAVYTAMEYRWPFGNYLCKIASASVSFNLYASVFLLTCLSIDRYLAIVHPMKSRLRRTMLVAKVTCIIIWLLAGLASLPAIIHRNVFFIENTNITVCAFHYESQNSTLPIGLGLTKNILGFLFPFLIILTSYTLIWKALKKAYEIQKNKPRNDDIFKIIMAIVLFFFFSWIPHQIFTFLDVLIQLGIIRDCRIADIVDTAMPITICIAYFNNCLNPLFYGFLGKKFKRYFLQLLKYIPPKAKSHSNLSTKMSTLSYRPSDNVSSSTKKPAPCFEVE
As to conditions: cited from earlier work.

Data set [1] relates to TAA-induced hepatic fibrosis rats. The data set can be described thus: Inflammatory and oxidative markers in liver homogenate of TAA-induced hepatic fibrosis rats. Type of data set: in vivo, rat. As to conditions: two months; for IL-6 level in liver homogenate (reversal of TAA-induced increase): FIG. 5A; for TNF-α level in liver homogenate (reversal of TAA-induced increase): FIG. 5B; for MDA level in liver homogenate (reversal of TAA-induced increase): FIG. 6A; for GSH level in liver homogenate (reversal of TAA-induced decrease): FIG. 6B. Here is the method: Rats were given freshly prepared TAA (0.9% w/v in saline solution, 200 mg/kg, ip) twice weekly for eight weeks. A normal control (NC) group of rats (n=8) received injections of the vehicle twice weekly for eight weeks. The TAA-treated rats were randomly assigned to groups (n=8), including a test group for each dosage of a free drug (not encapsulated in ZMS), each dosage of zeinmersomes encapsulating the drug, and a positive control group (PC) having hepatic fibrosis but receiving a vehicle-only treatment instead of a drug treatment. Five groups of rats (n=8) were given freshly prepared TAA (0.9% w/v in saline solution, 200 mg/kg, ip) twice weekly for eight weeks and a normal control (NC) group received vehicle injections, as described in Example 4. The five TAA groups included a positive control group (PC, untreated) and four groups treated with low and high doses (2 and 4 mg/kg/day) of OM as raw drug (OL & OH, respectively) and the same low and high doses (2 and 4 mg/kg/day) of OM formulated as zeinmersomes (OLZMS & OHZMS, respectively). The OM standard drug was suspended in distilled water containing 0.25% w/v carboxymethyl cellulose. The doses were given by oral gavage once daily for two months. […] At the end of treatment duration, blood samples were withdrawn from the retro-orbital plexus of the rats under light ether anesthesia. Plasma was separated and kept at −80° C. until analysis. Then, the rats were sacrificed by cervical dislocation under ether anesthesia. Liver and duodenum were isolated and parts of each were kept in 10% formalin-saline for histopathological examination. Other portions of liver tissue were homogenized. The plasma levels of ALT and AST and the homogenate levels of IL-6, reduced glutathione (GSH), TNF-α, malondialdehyde (MDA), and protein content were measured using ELISA kits (MyBioSource, Inc. CA, USA). In addition, the concentrations of olmesartan in plasma and liver homogenate were measured by HPLC/MS. A part of the liver of each animal was rapidly dissected out, washed, and homogenized in phosphate-buffered saline (0.01M PBS, pH 7.4) using a TissueLyser II (Qiagen; Venlo, Netherlands) at 4° C. to produce a 10% homogenate. The homogenates were centrifugated at 10000 rpm for 15 min at 4° C. and the supernatant was kept at −80° C. till time of analysis. The levels of TNF-α, IL-6, malondialdehyde (MDA), and reduced glutathione (GSH) were measured by the ELISA kits using a micro plate reader (Versa Max, Molecular Devices). The protein content in the liver homogenate was determined by using a colorimetric kit based on Bradford method (Bradford 1976) and the levels of IL-6, TNF-α, GSH, and MDA were expressed/mg protein. The IL-6 level was measured by using the competitive enzyme immunoassay technique utilizing a polyclonal anti-IL-6 antibody and an IL-6-HRP conjugate. The assay sample and buffer were incubated together with IL-6-HRP conjugate in pre-coated plate for one hour. After washing, the wells were then incubated with a substrate for HRP enzyme. The product of the enzyme-substrate reaction formed a blue colored complex. Finally, a stop solution was added to stop the reaction, which then turned the solution yellow. Absorbance was read at 450 nm in a microplate reader. The TNF-α level was measured by using the principle of double antibody sandwich ELISA technique is used. Anti-TNF-α antibody was pre-coated on the wells. Add biotin labeled anti-TNF-α antibodies to combine with the antigens on immune complexes. Avidin-Biotin-Peroxidase Complex was added, and unbound conjugates were washed away with wash buffer. TMB substrates were used to visualize HRP enzymatic reaction producing a blue color product that changed into yellow after adding acidic stop solution. The density of yellow is proportional to TNF-α amount of sample captured in plate. Absorbance was read at 450 nm. The GSH level was measured by using the principle of double antibody sandwich ELISA technique. Anti-GSH antibody was pre-coated on the wells. […]

Data set [2] deals with methotrexate-induced intestinal mucositis. As to conditions: pretreatment with 0.5, 1.0, or 5.0 mg/kg; cited from earlier work.

Regarding `CCCc1nc(C(C)(C)O)c(C(=O)OCc2oc(=O)oc2C)n1Cc1ccc(-c2ccccc2-c2nnn[nH]2)cc1` [OM, (5-methyl-2-oxo-1,3-dioxol-4-yl)methyl 5-(2-hydroxypropan-2-yl)-2-propyl-3-[[4-[2-(2H-tetrazol-5-yl)phenyl]phenyl]methyl]imidazole-4-carboxylate], the AT1 receptor blockade entry at AT1 receptor is “competitive and selective AT1 receptor blocker”. Further, in data set [1] (high dose 4 mg/kg/day oral), the “IL-6 level in liver homogenate (reversal of TAA-induced increase)” value is given as “significantly reversed”, the “TNF-α level in liver homogenate (reversal of TAA-induced increase)” value is recorded as “significantly reversed”, the “MDA level in liver homogenate (reversal of TAA-induced increase)” value is listed as “significantly reversed” and the “GSH level in liver homogenate (reversal of TAA-induced decrease)” value is listed as “significantly reversed”. In addition, in data set [1] (low dose 2 mg/kg/day oral), the “IL-6 level in liver homogenate (reversal of TAA-induced increase)” value is “All treatments except for OL significantly reversed”, the “TNF-α level in liver homogenate (reversal of TAA-induced increase)” value was “All treatments except for OL significantly reversed”, the “MDA level in liver homogenate (reversal of TAA-induced increase)” value was “All treatments except for OL significantly reversed” and the “GSH level in liver homogenate (reversal of TAA-induced decrease)” value is “All treatments except for OL significantly reversed”. Further, in data set [2], the “enteropathy (diarrhea, weight loss, decreased sucrose activity)” value is listed as “caused enteropathy”; the “inflammatory infiltration, vascular congestion, ulcerations, hemorrhagic areas; myeloperoxidase, IL-1β and TNF-α levels” value is given as “decreased”.
